Measured values: patent publication US6737383B1, “Herbicidal oxadiazolidines” (priority 1999, dated 2004)

Experiments:
bedstraw = test: Test B pre/postemergence bedstraw; format: in vivo, Galium aparine
Method in brief: (§1)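 Test chemicals in a non-phytotoxic solvent mixture with surfactant were sprayed preemergence onto planted seeds and postemergence onto plants 2 to 18 cm tall (1- to 4-leaf stage). After twelve to sixteen days in a greenhouse, injury was visually rated against untreated controls from 0 (no effect) to 10 (complete control).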

blackgrass = test: Test B pre/postemergence blackgrass; format: in vivo, Alopecurus myosuroides
Method in brief: as §1

surinam grass = test: Test B pre/postemergence surinam grass; format: in vivo, Brachiaria decumbens
Method in brief: as §1

cocklebur = test: Test B pre/postemergence cocklebur; format: in vivo, Xanthium strumarium
Method in brief: as §1

corn = test: Test B pre/postemergence corn; format: in vivo, Zea mays
Method in brief: as §1

crabgrass = test: Test B pre/postemergence crabgrass; format: in vivo, Digitaria sanguinalis
Method in brief: as §1

giant foxtail = test: Test B pre/postemergence giant foxtail; format: in vivo, Setaria faberii
Method in brief: as §1

morningglory = test: Test B pre/postemergence morningglory; format: in vivo, Ipomoea hederacea
Method in brief: as §1

velvetleaf = test: Test B pre/postemergence velvetleaf; format: in vivo, Abutilon theophrasti
Method in brief: as §1

wheat = test: Test B pre/postemergence wheat; format: in vivo, Triticum aestivum
Method in brief: as §1

wild oat = test: Test B pre/postemergence wild oat; format: in vivo, Avena fatua
Method in brief: as §1

purple nutsedge = test: Test B pre/postemergence purple nutsedge; format: in vivo, Cyperus rotundus; settings: Postemergence
Method in brief: as §1

rice = test: Test B flood test rice; format: in vivo, Oryza sativa
Method in brief: (§2)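 Each value is a visual injury score relative to controls, with 10 meaning complete control and 0 no effect. Evaluation took place twelve to sixteen days after the 2-leaf-stage plants were treated and kept in the greenhouse.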

smallflower flatsedge = test: Test B flood test smallflower flatsedge; format: in vivo, Cyperus difformis
Method in brief: as §2

duck salad = test: Test B flood test duck salad; format: in vivo, Heteranthera limosa
Method in brief: as §2

bamyardgrass = test: Test B flood test barnyardgrass; format: in vivo, Echinochloa crus-galli
Method in brief: as §2

[1] = Preemergence, Rate 62 g/ha, scale of 0 to 10 where 0 is no effect and 10 is complete control
[2] = Preemergence, Rate 250 g/ha, scale of 0 to 10 where 0 is no effect and 10 is complete control
[3] = Preemergence, Rate 500 g/ha, scale of 0 to 10 where 0 is no effect and 10 is complete control
[4] = Rate 62 g/ha, Postemergence, scale of 0 to 10 where 0 is no effect and 10 is complete control
[5] = Rate 125 g/ha, Postemergence, scale 0 to 10
[6] = Rate 125 g/ha, Preemergence, scale of 0 to 10 where 0 is no effect and 10 is complete control
[7] = Rate 500 g/ha, Postemergence, scale 0 to 10, 0 no effect, 10 complete control
[8] = Rate 62 g/ha, headed Pre-emergence (flood test species), scale 0 to 10 (0 no effect, 10 complete control)
[9] = Rate 125 g/ha, Pre-emergence, flood test species, scale 0 to 10 where 0 is no effect and 10 is complete control
[10] = Rate 250 g/ha, Pre-emergence, flood-test species, scale 0 to 10, 0 is no effect, 10 is complete control
[11] = Rate 500 g/ha, Pre-emergence, flood test species, scale 0 to 10 (0 no effect, 10 complete control)

Question: What does the source list for `COCCOCn1c(=O)on(C(=O)N(c2ccc(F)cc2)C(C)C)c1=O` [Compound 220]?
Answer: Bedstraw plant response rating (bedstraw; [1]): 0; Bedstraw plant response rating (bedstraw; [2]): 10; Plant response rating, Bedstraw (bedstraw; [3]): 10; Bedstraw plant response rating (bedstraw; [4]): 6; Bedstraw plant response rating (bedstraw; [5]): 8; Bedstraw plant response rating (bedstraw; [6]): 4; Plant response rating (0 to 10; 0 is no effect, 10 is complete control), Bedstraw (bedstraw; Rate 250 g/ha, Postemergence): 8; Bedstraw plant response rating (bedstraw; [7]): 9; Blackgrass plant response rating (blackgrass; [1]): 8; Blackgrass plant response rating (blackgrass; [2]): 10; Plant response rating, Blackgrass (blackgrass; [3]): 10; Blackgrass plant response rating (blackgrass; [4]): 5; Blackgrass plant response rating (blackgrass; [5]): 7; Blackgrass plant response rating (blackgrass; [6]): 9; Plant response rating (0 to 10; 0 is no effect, 10 is complete control), Blackgrass (blackgrass; Rate 250 g/ha, Postemergence): 8; Blackgrass plant response rating (blackgrass; [7]): 8; B. signalgrass plant response rating (surinam grass; [1]): 7; B. signalgrass plant response rating (surinam grass; Preemergence, Rate 250 g/ha, scale 0 to 10, 0 is no effect, 10 is complete control): 8; Plant response rating, B. signalgrass (surinam grass; [3]): 8; B. signalgrass plant response rating (surinam grass; [4]): 2; B. signalgrass plant response rating (surinam grass; Rate 125 g/ha, Postemergence, scale 0 (no effect) to 10 (complete control)): 7; B. signalgrass plant response rating (surinam grass; [6]): 7; Plant response rating (0 to 10; 0 is no effect, 10 is complete control), B. signalgrass (surinam grass; Rate 250 g/ha, Postemergence): 8; B. signalgrass plant response rating (surinam grass; [7]): 8; Cocklebur plant response rating (cocklebur; [1]): 0; Plant response rating, Cocklebur (cocklebur; [3]): 5; Cocklebur plant response rating (cocklebur; [4]): 0; Cocklebur plant response rating (cocklebur; [5]): 0; Cocklebur plant response rating (cocklebur; [6]): 0; Plant response rating (0 to 10; 0 is no effect, 10 is complete control), Cocklebur (cocklebur; Rate 250 g/ha, Postemergence): 3; Cocklebur plant response rating (cocklebur; [7]): 5; Corn plant response rating (corn; [1]): 0; Corn plant response rating (corn; [2]): 5; Plant response rating, Corn (corn; [3]): 7; Corn plant response rating (corn; [4]): 0; Corn plant response rating (corn; [5]): 2; Corn plant response rating (corn; [6]): 3; Plant response rating (0 to 10; 0 is no effect, 10 is complete control), Corn (corn; Rate 250 g/ha, Postemergence): 6; Corn plant response rating (corn; [7]): 6; Crabgrass plant response rating (crabgrass; [1]): 7; Crabgrass plant response rating (crabgrass; [2]): 8; Plant response rating, Crabgrass (crabgrass; [3]): 10; Crabgrass plant response rating (crabgrass; [4]): 3; Crabgrass plant response rating (crabgrass; [5]): 5; Crabgrass plant response rating (crabgrass; [6]): 7; Plant response rating (0 to 10; 0 is no effect, 10 is complete control), Crabgrass (crabgrass; Rate 250 g/ha, Postemergence): 7; Crabgrass plant response rating (crabgrass; [7]): 9; Giant foxtail plant response rating (giant foxtail; [1]): 9; Giant foxtail plant response rating (giant foxtail; [2]): 10; Plant response rating, Giant foxtail (giant foxtail; [3]): 10; Giant foxtail plant response rating (giant foxtail; [4]): 5; Giant foxtail plant response rating (giant foxtail; [5]): 6; Giant foxtail plant response rating (giant foxtail; [6]): 9; Plant response rating (0 to 10; 0 is no effect, 10 is complete control), Giant foxtail (giant foxtail; Rate 250 g/ha, Postemergence): 8; Giant foxtail plant response rating (giant foxtail; [7]): 8; Morningglory plant response rating (morningglory; [1]): 0; Morningglory plant response rating (morningglory; [2]): 1; Plant response rating, Morningglory (morningglory; [3]): 6; Morningglory plant response rating (morningglory; [4]): 5; Morningglory plant response rating (morningglory; [5]): 5; Morningglory plant response rating (morningglory; [6]): 0; Plant response rating (0 to 10; 0 is no effect, 10 is complete control), Morningglory (morningglory; Rate 250 g/ha, Postemergence): 8; Morningglory plant response rating (morningglory; [7]): 8; Velvetleaf plant response rating (velvetleaf; [1]): 1; Velvetleaf plant response rating (velvetleaf; [2]): 4; Plant response rating, Velvetleaf (velvetleaf; [3]): 8; Velvetleaf plant response rating (velvetleaf; [4]): 0; Velvetleaf plant response rating (velvetleaf; [5]): 0; Velvetleaf plant response rating (velvetleaf; [6]): 3; Plant response rating (0 to 10; 0 is no effect, 10 is complete control), Velvetleaf (velvetleaf; Rate 250 g/ha, Postemergence): 2; Velvetleaf plant response rating (velvetleaf; [7]): 2; Wheat plant response rating (wheat; [1]): 6; Wheat plant response rating (wheat; [2]): 8; Plant response rating, Wheat (wheat; [3]): 8; Wheat plant response rating (wheat; [4]): 3; Wheat plant response rating (wheat; [5]): 4; Wheat plant response rating (wheat; [6]): 7; Plant response rating (0 to 10; 0 is no effect, 10 is complete control), Wheat (wheat; Rate 250 g/ha, Postemergence): 6; Wheat plant response rating (wheat; [7]): 6; Wild oats plant response rating (wild oat; [1]): 3; Wild oats plant response rating (wild oat; [2]): 7; Plant response rating, Wild oats (wild oat; [3]): 8; Wild oats plant response rating (wild oat; [4]): 0; Wild oats plant response rating (wild oat; [5]): 0; Wild oats plant response rating (wild oat; [6]): 5; Plant response rating (0 to 10; 0 is no effect, 10 is complete control), Wild oats (wild oat; Rate 250 g/ha, Postemergence): 2; Wild oats plant response rating (wild oat; [7]): 2; Nutsedge plant response rating (purple nutsedge; Rate 62 g/ha, scale of 0 to 10 where 0 is no effect and 10 is complete control): 0; Nutsedge plant response rating (purple nutsedge; Rate 125 g/ha, scale 0 to 10): 0; Plant response rating (0 to 10; 0 is no effect, 10 is complete control), Nutsedge (purple nutsedge; Rate 250 g/ha): 0; Nutsedge plant response rating (purple nutsedge; Rate 500 g/ha, scale 0 to 10, 0 no effect, 10 complete control): 0; Rice plant response rating (rice; [8]): 0; Rice plant response rating (rice; [9]): 0; Rice plant response rating (rice; [10]): 0; Rice plant response rating (rice; [11]): 0; S. Flatsedge plant response rating (smallflower flatsedge; [8]): 0; S. Flatsedge plant response rating (smallflower flatsedge; [9]): 0; S. Flatsedge plant response rating (smallflower flatsedge; [10]): 0; S. Flatsedge plant response rating (smallflower flatsedge; [11]): 0; Ducksalad plant response rating (duck salad; [8]): 0; Ducksalad plant response rating (duck salad; [9]): 0; Ducksalad plant response rating (duck salad; [10]): 0; Ducksalad plant response rating (duck salad; [11]): 0; Barnyardgrass plant response rating (bamyardgrass; [8]): 0; Barnyardgrass plant response rating (bamyardgrass; [9]): 0; Barnyardgrass plant response rating (bamyardgrass; [10]): 2; Barnyardgrass plant response rating (bamyardgrass; [11]): 3
